Source: patent publication US5506216A, “Cyclodextrin-biocide complex” (Boehringer Mannheim GmbH, priority 1993, dated 1996)
Like-named read-outs stand apart in the source and are kept apart here.

Tests used:
Assay in all cases: MIC of included and free biocides on agar
Assay type in all cases: cell-based
Details in all cases: for MIC: read-out: MIC of included and free biocides
[1] = tested on: Pseudomonas fluorescens (gram -)
Protocol: (§1) The spectrum of activity of the individual biocide inclusion complexes was determined on bacteria (gram-positive and gram-negative strains), yeasts and fungi (see Table 1). The values are stated as MIC values (=minimum inhibitory concentration) in mg/ml.
(§2) The determination of the growth of the microorganisms was carried out on M121 medium (Sabouraud, 2% maltose nutrient agar (Merck)) for yeasts and fungi and on M130 medium (standard I nutrient agar (Merck)) for bacteria after 72 hours at 28° C. The amount of active substance in the CD inclusion compounds is less than 10%.

[2] = tested on: Staphylococcus aureus (gram +)
Protocol: as §1, §2

Candida albicans (yeast) = tested on: Candida albicans (yeast)
Protocol: as §1, §2

[3] = tested on: Bacillus subtilis (gram +)
Protocol: as §1, §2

[4] = tested on: Escherichia coli (gram -)
Protocol: as §1, §2

[5] = tested on: Aspergillus oryzae (fungus)
Protocol: as §1, §2

[6] = M130 medium, 72 hours at 28° C., active substance in complexes <10%
[7] = M121 medium, 72 hours at 28° C., active substance in complexes <10%

## 1,2-benzisothiazolin-3-thion [Proxel]
[1]; [6]
  MIC of included and free biocides: < 40 µg/mL
[2]; [6]
  MIC of included and free biocides: < 40 µg/mL
Candida albicans (yeast); [7]
  MIC of included and free biocides: 40 µg/mL
[3]; [6]
  MIC of included and free biocides: < 40 µg/mL
[4]; [6]
  MIC of included and free biocides: < 40 µg/mL
[5]; [7]
  MIC of included and free biocides: 75 µg/mL

## Oc1ccccc1-c1ccccc1 [o-phenylphenol]
[1]; 72 h
  MIC: 1250 µg/mL
[2]; 72 h
  MIC: 1250 µg/mL
Candida albicans (yeast); 72 h
  MIC: 600 µg/mL
[3]; 72 h
  MIC: 1250 µg/mL
[4]; 72 h
  MIC: 1250 µg/mL
[5]; 72 h
  MIC: 300 µg/mL

## CNC(=O)c1ccccc1SSc1ccccc1C(=O)NC [Densil P, dithio-2,2'-bis(benzmethylamide)]
[1]; [6]
  MIC: 300 µg/mL
[2]; [6]
  MIC: < 40 µg/mL
Candida albicans (yeast); [7]
  MIC: 600 µg/mL
[3]; [6]
  MIC: < 40 µg/mL
[4]; [6]
  MIC: 75 µg/mL
[5]; [7]
  MIC: < 40 µg/mL

## N#CSCSC#N [methylenebisthiocyanate]
[1]; 72 h
  MIC: < 40 µg/mL
[2]; 72 h
  MIC: 17.5 µg/mL
Candida albicans (yeast); 72 h
  MIC: 20 µg/mL
[3]; 72 h
  MIC: 75 µg/mL
[4]; 72 h
  MIC: < 40 µg/mL
[5]; 72 h
  MIC: 20 µg/mL
